The values below come from patent US10259779B2 (WAYNE STATE UNIVERSITY, priority 2016, dated 2019).

Data set [1] deals with T1, HDAC6 (Homo sapiens, UniProt Q9UBN7).
T1 sequence (Q9UBN7 1-1215): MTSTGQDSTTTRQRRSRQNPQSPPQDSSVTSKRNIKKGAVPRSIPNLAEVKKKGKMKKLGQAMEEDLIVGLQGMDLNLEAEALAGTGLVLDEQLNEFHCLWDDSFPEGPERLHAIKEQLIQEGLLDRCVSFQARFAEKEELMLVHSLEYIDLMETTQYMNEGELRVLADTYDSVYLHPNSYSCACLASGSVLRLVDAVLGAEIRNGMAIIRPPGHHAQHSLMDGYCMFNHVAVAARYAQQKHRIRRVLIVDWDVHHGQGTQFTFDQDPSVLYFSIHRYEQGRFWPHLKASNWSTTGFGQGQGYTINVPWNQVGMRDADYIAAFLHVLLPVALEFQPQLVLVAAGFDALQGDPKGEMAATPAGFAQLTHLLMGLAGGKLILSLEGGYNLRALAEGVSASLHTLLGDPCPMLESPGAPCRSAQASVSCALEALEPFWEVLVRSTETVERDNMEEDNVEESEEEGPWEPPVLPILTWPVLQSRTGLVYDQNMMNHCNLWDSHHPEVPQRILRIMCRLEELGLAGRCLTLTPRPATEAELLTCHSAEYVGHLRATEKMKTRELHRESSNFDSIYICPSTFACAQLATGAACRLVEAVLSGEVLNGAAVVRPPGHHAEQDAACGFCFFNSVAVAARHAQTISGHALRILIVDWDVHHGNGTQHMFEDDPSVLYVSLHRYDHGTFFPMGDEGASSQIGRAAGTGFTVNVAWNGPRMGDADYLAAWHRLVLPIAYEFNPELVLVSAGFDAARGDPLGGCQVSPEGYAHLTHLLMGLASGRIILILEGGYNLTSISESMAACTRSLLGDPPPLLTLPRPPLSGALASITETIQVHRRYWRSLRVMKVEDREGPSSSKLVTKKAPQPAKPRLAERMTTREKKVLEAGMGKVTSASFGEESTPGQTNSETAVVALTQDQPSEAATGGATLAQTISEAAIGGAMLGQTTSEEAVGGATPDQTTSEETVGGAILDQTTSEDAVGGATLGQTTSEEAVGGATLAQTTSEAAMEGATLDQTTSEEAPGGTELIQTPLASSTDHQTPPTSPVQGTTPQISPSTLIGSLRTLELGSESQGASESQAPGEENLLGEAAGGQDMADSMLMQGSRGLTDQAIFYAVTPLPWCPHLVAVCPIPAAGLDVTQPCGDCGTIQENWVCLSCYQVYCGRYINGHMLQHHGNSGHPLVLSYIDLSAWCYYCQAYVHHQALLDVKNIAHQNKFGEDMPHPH
As to conditions: single concentration 1 μM; cited from earlier work.

Data set [2] concerns acetyl-histone H3 (HDAC1, 2, 3 substrate) in U937 cells. Put plainly: In cellulo selectivity testing, western blot of acetyl-histone H3. The data set is classed as cell-based. Particulars: 18 hours, SAHA 5 μM. (In general: In western blotting, separated proteins are transferred to a membrane and probed.)
In data set [3] the test system is acetyl-α-tubulin (HDAC6 substrate) in U937 cells. Kind of data set: In cellulo selectivity testing, western blot of acetyl-α-tubulin. The data set is classed as cell-based. Particulars: 18 hours, SAHA 5 μM, 1f 20-60 μM, compared to DMSO control.
In data set [4] the target is T2, HDAC1 (Homo sapiens, UniProt Q13547). As to conditions: single concentration 1 μM; cited from earlier work.
A further data set can be described thus: in vitro. Particulars: human, Jurkat cells (leukemia cell line).
The test system of data set [5] is HDAC proteins in HeLa cell lysates. Put plainly: Global HDAC inhibition with HeLa cell lysates (HDAC-Glo I/II substrate). The data set is classed as biochemical. As to conditions: Hela Lysate. The procedure:
HDAC activity was measured using the commercially available HDAC-Glo™ I/II substrate (Promega).
Lysates were prepared according to the reported procedure.^28 HeLa-S3 cells (purchased from Biovest) were lysed in lysis buffer (1×10^9 cells in 10 mL lysis buffer; 50 mM Tris-HCl, pH 8.0, 10% glycerol, 150 mM NaCl, 0.5% Triton X-100, and 1× protease inhibitor cocktail (GenDEPOT)) with rotation at 4° C. for 30 min. Cell debris was removed by centrifugation at 12000 rpm at 4° C. for 30 min. Protein concentration of the supernatant was determined using Bio-Rad protein assay (BioRad, Bradford reagent). Lysates were stored at −80° C.
To measure global HDAC inhibition, HeLa cell lysates (1 μg total protein) were mixed with HDAC-Glo™ buffer in polystyrene 96-well half area white plate (Corning) to a final volume of 12 μL, followed by addition of inhibitors in DMSO (0.5 μL) and incubation for 15 min at room temperature without rocking. An uninhibited control reaction was also included that contained DMSO (0.5 μL). Finally, deacetylase activity was measured using the HDAC-Glo™ assay kit (Promega) as per the manufacturer's protocol. Specifically, the HDAC-Glo™ substrate (1 mL) and developer ([…]) were first premixed to form the HDAC-Glo™ reagents. Then, to monitor deacetylase activity, HDAC-Glo™ reagent (5 μL) and HDAC-Glo™ buffer (7.5 μL) were added to each well (25 μL total volume) and incubated for 35 min at room temperature without rocking. The deacetylase activity was measured as luminescent signal using a GeniosPlus Fluorimeter (Tecan) at optimal gain. The concentrations of inhibitors reported in the dose-dependent studies (Table 2) are final concentrations after addition of HDAC-Glo™ reagent HDAC-Glo™ buffer.

In the next data set the target is HDAC2 (Homo sapiens, UniProt Q92769). Kind of data set: ELISA-based HDAC activity assay, HDAC2. As to conditions: read-out: Deacetylase activity (%) HDAC2.
Data set [6] addresses T2, HDAC1. Kind of data set: ELISA-based HDAC activity assay, HDAC1. Particulars: read-out: Deacetylase activity (%) HDAC1. (ELISA stands for enzyme-linked immunosorbent assay.)
The subject of the next data set is U937 cells. Put plainly: In vitro cell growth inhibition, MTT assay, U937. Type of data set: cell-based. As to conditions: U937 cell line.
The target of the next data set is T3, recombinant HDAC8 (Homo sapiens, UniProt Q9BY41).
T3 construct: purchased BPS Bioscience
T3 sequence (Q9BY41 1-377): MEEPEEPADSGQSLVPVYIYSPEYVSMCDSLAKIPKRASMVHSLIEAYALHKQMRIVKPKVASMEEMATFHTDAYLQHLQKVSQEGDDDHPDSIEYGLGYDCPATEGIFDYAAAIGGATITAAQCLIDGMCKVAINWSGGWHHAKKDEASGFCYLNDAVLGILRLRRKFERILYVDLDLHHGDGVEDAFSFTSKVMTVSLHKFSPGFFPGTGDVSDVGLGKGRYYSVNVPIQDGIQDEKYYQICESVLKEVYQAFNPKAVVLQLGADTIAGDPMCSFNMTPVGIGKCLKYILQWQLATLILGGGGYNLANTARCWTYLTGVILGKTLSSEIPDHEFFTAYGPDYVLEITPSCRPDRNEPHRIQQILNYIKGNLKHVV
Put plainly: Recombinant HDAC8 inhibition (HDAC-Glo). The data set is classed as biochemical. As to conditions: read-out: Deacetylase activity (%) HDAC8. The procedure: Inhibitory activity with HDAC8 was measured using the following procedure. In a half area 96-well white opaque plate, recombinant HDAC8 (75 ng, BPS Bioscience) was incubated in HDAC-Glo™ buffer (39 μL) with inhibitor in DMSO (1 μL), or DMSO alone (1 μL) as a control, for 15 minutes at room temperature. HDAC-Glo™ reagent (10 μL) was added to each reaction and incubated for 30 min at room temperature. Luminescent signal was measured 30 minutes after adding the substrate reagent using a Geniosplus Fluorimeter (Tecan) at optimal gain. To determine IC50, the luminescent signal was first background corrected with the signal from a background control reaction where no HDAC8 enzyme was added.

The target of data set [7] is T1, HDAC6. Put plainly: ELISA-based HDAC activity assay, HDAC6. As to conditions: read-out: Deacetylase activity (%) HDAC6.
In a further data set the target is HDAC3 (Homo sapiens, UniProt O15379). Put plainly: ELISA-based HDAC activity assay, HDAC3. Particulars: read-out: Deacetylase activity (%) HDAC3.
Data set [8] deals with T1, HDAC6. As to conditions: literature ref 55; cited from earlier work.

HDAC2, sequence (Q92769 whole entry): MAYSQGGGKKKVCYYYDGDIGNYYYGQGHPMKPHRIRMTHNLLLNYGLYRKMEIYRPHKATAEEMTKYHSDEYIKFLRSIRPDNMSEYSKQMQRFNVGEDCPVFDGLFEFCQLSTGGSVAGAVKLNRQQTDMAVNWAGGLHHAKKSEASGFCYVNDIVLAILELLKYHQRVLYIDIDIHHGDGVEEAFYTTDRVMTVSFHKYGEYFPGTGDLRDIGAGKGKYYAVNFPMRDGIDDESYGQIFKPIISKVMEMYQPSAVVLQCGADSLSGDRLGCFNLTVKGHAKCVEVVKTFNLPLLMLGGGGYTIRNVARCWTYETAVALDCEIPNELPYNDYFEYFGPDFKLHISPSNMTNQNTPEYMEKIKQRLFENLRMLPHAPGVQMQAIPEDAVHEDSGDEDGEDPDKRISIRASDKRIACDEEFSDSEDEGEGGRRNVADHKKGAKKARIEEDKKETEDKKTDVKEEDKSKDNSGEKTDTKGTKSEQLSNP
T2 sequence (Q13547 whole entry): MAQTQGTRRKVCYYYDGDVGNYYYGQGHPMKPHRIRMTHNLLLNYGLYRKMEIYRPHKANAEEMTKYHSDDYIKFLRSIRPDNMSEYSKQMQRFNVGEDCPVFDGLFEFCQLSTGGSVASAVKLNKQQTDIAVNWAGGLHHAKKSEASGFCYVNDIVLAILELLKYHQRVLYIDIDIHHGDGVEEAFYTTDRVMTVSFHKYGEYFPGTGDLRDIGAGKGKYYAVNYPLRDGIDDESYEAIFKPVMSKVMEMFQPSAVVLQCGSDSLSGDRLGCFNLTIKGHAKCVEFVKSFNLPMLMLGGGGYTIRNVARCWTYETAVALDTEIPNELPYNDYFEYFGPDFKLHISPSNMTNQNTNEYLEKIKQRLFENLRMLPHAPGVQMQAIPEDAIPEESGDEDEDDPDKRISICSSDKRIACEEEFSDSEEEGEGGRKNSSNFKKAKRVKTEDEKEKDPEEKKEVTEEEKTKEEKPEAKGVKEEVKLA
HDAC3, sequence (O15379 whole entry): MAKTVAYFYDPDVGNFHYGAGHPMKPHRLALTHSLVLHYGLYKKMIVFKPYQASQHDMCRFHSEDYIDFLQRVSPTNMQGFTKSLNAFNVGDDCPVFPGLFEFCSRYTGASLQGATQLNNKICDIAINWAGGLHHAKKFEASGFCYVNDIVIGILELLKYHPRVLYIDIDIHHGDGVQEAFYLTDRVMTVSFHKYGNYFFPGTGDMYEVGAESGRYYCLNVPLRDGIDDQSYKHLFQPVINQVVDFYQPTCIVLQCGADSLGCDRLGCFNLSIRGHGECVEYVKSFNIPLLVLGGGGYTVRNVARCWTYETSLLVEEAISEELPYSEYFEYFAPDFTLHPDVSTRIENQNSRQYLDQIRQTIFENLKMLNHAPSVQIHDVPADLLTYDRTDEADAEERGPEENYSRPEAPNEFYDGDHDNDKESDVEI
HDAC3, sequence (Q9Y618 whole entry partner): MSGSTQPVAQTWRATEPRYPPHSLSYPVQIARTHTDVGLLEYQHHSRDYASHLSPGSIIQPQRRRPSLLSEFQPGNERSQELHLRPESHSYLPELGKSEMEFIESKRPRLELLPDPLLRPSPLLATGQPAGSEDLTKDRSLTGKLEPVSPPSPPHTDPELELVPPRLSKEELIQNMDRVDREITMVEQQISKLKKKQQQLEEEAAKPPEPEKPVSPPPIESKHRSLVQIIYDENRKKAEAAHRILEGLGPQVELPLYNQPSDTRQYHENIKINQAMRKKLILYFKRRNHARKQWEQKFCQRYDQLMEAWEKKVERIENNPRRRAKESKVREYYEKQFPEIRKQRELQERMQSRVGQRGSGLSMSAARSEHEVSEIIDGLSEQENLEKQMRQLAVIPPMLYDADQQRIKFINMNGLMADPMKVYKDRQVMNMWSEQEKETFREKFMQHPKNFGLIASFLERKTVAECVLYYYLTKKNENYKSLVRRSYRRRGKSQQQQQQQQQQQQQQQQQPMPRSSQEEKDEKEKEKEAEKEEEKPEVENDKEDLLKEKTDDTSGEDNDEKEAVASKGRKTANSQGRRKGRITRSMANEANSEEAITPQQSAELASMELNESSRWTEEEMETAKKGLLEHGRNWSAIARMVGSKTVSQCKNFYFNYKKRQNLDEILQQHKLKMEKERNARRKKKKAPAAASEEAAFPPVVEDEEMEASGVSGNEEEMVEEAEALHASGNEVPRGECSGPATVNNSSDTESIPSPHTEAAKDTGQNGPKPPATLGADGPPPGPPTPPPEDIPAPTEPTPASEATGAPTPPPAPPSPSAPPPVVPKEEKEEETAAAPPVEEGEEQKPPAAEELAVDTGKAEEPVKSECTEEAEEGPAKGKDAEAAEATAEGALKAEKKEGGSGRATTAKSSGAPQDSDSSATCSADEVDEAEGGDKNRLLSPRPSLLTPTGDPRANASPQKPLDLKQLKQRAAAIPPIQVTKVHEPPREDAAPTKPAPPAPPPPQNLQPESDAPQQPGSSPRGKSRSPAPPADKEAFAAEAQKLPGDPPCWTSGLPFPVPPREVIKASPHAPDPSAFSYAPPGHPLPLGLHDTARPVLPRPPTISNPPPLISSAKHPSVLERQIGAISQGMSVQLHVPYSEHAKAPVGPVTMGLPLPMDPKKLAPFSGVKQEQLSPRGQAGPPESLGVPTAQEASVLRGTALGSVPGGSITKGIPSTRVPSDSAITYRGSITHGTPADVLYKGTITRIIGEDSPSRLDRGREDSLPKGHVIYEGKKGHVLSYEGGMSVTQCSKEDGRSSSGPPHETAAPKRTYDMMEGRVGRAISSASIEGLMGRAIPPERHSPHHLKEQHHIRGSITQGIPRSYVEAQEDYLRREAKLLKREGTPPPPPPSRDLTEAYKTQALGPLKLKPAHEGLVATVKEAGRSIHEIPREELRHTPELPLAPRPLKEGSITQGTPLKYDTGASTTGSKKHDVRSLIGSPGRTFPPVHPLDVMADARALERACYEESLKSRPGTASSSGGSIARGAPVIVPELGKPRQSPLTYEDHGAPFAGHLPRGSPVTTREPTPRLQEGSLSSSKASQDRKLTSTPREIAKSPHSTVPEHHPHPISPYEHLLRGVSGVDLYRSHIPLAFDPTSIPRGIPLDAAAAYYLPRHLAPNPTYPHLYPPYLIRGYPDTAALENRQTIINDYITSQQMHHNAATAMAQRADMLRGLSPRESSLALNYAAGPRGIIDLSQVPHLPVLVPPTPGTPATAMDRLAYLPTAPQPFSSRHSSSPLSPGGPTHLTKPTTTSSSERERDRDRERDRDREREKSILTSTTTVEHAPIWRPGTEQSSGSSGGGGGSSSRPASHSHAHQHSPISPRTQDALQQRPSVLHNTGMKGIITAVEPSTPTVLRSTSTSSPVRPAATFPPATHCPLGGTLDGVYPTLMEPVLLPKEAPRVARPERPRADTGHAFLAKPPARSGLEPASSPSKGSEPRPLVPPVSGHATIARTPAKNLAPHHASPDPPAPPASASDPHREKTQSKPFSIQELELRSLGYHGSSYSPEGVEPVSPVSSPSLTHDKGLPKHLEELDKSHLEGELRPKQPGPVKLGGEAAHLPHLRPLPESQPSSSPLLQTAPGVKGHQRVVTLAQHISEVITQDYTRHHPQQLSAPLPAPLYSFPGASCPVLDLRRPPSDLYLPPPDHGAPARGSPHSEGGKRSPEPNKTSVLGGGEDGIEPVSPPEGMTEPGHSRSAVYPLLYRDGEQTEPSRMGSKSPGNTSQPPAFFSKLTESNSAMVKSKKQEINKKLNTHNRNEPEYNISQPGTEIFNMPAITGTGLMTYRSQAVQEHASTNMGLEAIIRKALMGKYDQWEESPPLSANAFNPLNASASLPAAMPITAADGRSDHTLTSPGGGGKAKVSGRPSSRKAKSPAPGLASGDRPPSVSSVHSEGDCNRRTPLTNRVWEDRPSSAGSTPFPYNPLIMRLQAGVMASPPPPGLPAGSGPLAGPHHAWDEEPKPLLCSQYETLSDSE

For orientation: viability means a read-out of living cells in per cent, often relative to untreated cells. On to `O=C(CCCCCCC(=O)Nc1ccccc1)NO` [SAHA, suberoylamide hydroxamic acid], for which the “Deacetylase activity (%) HDAC6” value at HDAC6 [1] was 7.9 ± 1.6%. Moreover, in data set [2], the “levels of acetyl-histone H3 (AcH3), western blot” value is reported as “increases levels”. The “levels of acetyl-α-tubulin (AcTub), western blot” value in data set [3] is reported as “increases levels”. On HDAC1 [4], the “Deacetylase activity (%) HDAC1” value was 8.9 ± 0.1%. This compound had a viability at 44 h, 10 µM in the data set “in vitro” of 5 ± 3%.
What is called EC50 is the concentration at which the effect is half-maximal. A lower EC50 goes with greater potency. With `CCCCC(CCCC(=O)Nc1ccccc1)CCC(=O)NO` (racemic) [Compound 1c, 4-butyl-N^1-hydroxy-N^8-phenyloctanediamide], the “Deacetylase activity (%)” value is 69 ± 2% in data set [5] (3.0 × 10^−5 M); 44 ± 4% in data set [5] (6.0 × 10^−5 M); 24 ± 1% in data set [5] ([…] 10^−4 M); 88 ± 1% in [5] ([…] 10^−5 M); 97 ± 2% in data set [5] ([…] 10^−6 M). For the same compound, the activity at 3.5 µM is 81 ± 5% at HDAC2, 81 ± 1% on HDAC1 [6] and 79 ± 3% on HDAC3. In addition, the values for the activity at 7 µM on HDAC2, on HDAC1 [6] and at HDAC3 were 71 ± 2%, 67 ± 2% and 79 ± 3%, respectively. Besides, the activity at 14 µM is 57 ± 1% on HDAC2, 53 ± 3% on HDAC1 [6] and 64 ± 2% at HDAC3. Further, the activity at 28 µM at HDAC2 was determined as 43 ± 2%; at HDAC1 [6], 35 ± 1%; at HDAC3, 48 ± 5%. For the same compound, the activity at 56 µM at HDAC2 was determined as 18 ± 10%; on HDAC1 [6], 19 ± 1%; at HDAC3, 25 ± 5%. Besides, the activity at […] was 87 ± 1% at HDAC2, 74 ± 3% on recombinant HDAC8 (2.5 × 10^−8 M) and 70 ± 6% at HDAC6 [7]. This compound also registered an EC50 with U937 cells of 34 µM. The activity at 0.1 µM on recombinant HDAC8 (1.0 × 10^−7 M) turned out to be 41 ± 5%; at HDAC6 [7] it was 46 ± 9%. Further, on recombinant HDAC8 (1.25 × 10^−8 M), the activity at 0.0125 µM stood at 84 ± 1%. The activity at 0.2 µM at recombinant HDAC8 (2.0 × 10^−7 M) came out at 28 ± 4%; on HDAC6 [7], 39 ± 5%. Moreover, the activity at 0.05 µM at recombinant HDAC8 (5.0 × 10^−8 M) amounted to 61 ± 7%; at HDAC6 [7], 61 ± 6%. In addition, the viability at 44 h, 1 µM in the data set “in vitro” turned out to be 98 ± 6%. Further, the viability at 44 h, 10 µM in “in vitro” stood at 62 ± 16%. The activity at 0.4 µM on HDAC6 [7] was determined as 23 ± 3%.
Regarding `CCCC(CCC)C(=O)NO` [Valpropylhydroxamic acid], the “fold selectivity for HDAC6 and 8 against HDAC1, 2, and 3 (reported)” value on HDAC6 [8] is listed as 9-17 fold.
